Test results taken from patent US20240199571A1, “THIOPHENE COMPOUND AND APPLICATION THEREOF” (MEDSHINE DISCOVERY INC., priority 2021, published 2024).
Where a name gives a salt, the structure may show the parent alone.

Experiments:
NCI-H1417 cells = assay: Experiment 2: inhibition of NCI-H1417 cell proliferation (CellTiter-Glo, 10 days); type: cell-based; conditions: Homo sapiens, 240 h, 10 days incubation
In short: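 Cells at 1000 per well exposed to 10-point 3-fold dilutions from 10 μM top concentration for 10 days. Viability by CellTiter-Glo luminescence; inhibition normalized to max/min controls, IC50 from four-parameter fit.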

[1] = tested on: human small cell lung cancer NCI-H1417 cell subcutaneous xenograft tumor; assay: Experiment 5: in vivo pharmacodynamic study, NCI-H1417 subcutaneous xenograft tumor in CB17-SCID mice; conditions: p.o.; for Mean tumor volume ± SEM (mm^3) (Day 28): day 28 after administration; for TGI (%): tumor volume at day 28
Description: Experiment 5: In Vivo Pharmacodynamic Study of Compounds on CB17-SCID Mouse Model of Human Small Cell Lung Cancer NCI-H1417 Cell Subcutaneous Xenograft Tumor
The purpose of this experiment was to evaluate the in vivo efficacy of the compounds of the present disclosure on CB17-SCID mouse model of human small cell lung cancer NCI-H1417 cell subcutaneous xenograft tumor.
5.2 Experimental Animals: • Species: mice • Strain: CB17-SCID mice • Week age and weight: 6-8 weeks old, 18 to 22 grams • Gender: Female • Supplier: Beijing Vital River Laboratory Animal Technology Co., Ltd.
Human lung cancer cells NCI-H1417 were cultured in vitro in suspension in RPMI 1640 medium with 10% fetal bovine serum, 100 U/mL penicillin, and 100 μg/mL streptomycin at 37° C. in a 5% CO2 cell culture incubator. Routine digestion and passage treatment were performed twice a week. When the number of cells reached the required number, the cells were counted and resuspended in PBS at a density of 10×10^6 cells/200 μL.
0.2 mL of NCI-H1417 tumor cells (containing 10×10^6 cells) suspension (PBS: matrix gel=1:1) was subcutaneously inoculated on the right back of mice, and in pharmacodynamic experiments, on the 16th day after cell inoculation, when the average tumor volume reached 86 mm^3, the subjects were randomly grouped and the administration started.
The experimental vehicle was 5% dimethyl sulfoxide/95% (10% Solutol) solution. Preparation method: 3.8 mL of […] was taken and added to 34.2 mL of double-distilled water, 2 mL of dimethyl sulfoxide was added thereto, and the mixture was mixed well. The test substance was dissolved with the vehicle, prepared as a homogeneous solution of a certain concentration, and stored at 4° C.
The experimental indicator was to examine whether tumor growth was inhibited, delayed, or cured. The tumor diameter was measured twice a week using vernier calipers. The calculation formula of tumor volume is V=0.5a×b^2, wherein a and b represent the long and short diameters of the tumor respectively.
The tumor inhibitory efficacy of compounds was evaluated by TGI (%). TGI (%) reflects the tumor growth inhibition rate. Calculation of TGI (%): TGI (%)=[1−(Average tumor volume at the end of administration in a certain treatment group−Average tumor volume at the beginning of administration in this treatment group)/(Average tumor volume at the end of treatment in the vehicle control group−Average tumor volume at the beginning of treatment in the vehicle control group)]×100%.

Structure (SMILES)	IC50 (NCI-H1417 cells) [nM]	Mean tumor volume ± SEM (mm^3) (Day 28) ([1]; 30 mg/kg, BID)	TGI (%) ([1]; 30 mg/kg, BID)	Mean tumor volume ± SEM (mm^3) (Day 28) ([1]; 5 mg/kg, BID)	TGI (%) ([1]; 5 mg/kg, BID)	Mean tumor volume ± SEM (mm^3) (Day 28) ([1]; 5 mg/kg, QD)	TGI (%) ([1]; 5 mg/kg, QD)	Mean tumor volume ± SEM (mm^3) (Day 28) ([1]; 10 mg/kg, QD)	TGI (%) ([1]; 10 mg/kg, QD)
CC(C)(CO)n1cc2cc(-c3sc(C(=O)N4CCC[C@@H](N)C4)cc3-c3ccc(C#N)c(F)c3)ccc2n1 [Hydrochloride of compound 87]	5.11	67 ± 5	105.17	–	–	–	–	–	–
CN[C@@H]1CCCN(C(=O)c2cc(-c3ccc(C#N)c(F)c3)c(-c3cc4nnn(CC(C)(C)O)c4c(F)c3F)s2)C1 [Hydrochloride of compound 98]	0.07	–	–	34 ± 1	114.20	44 ± 2	111.58	38 ± 3	113.35
